PubChem BioAssay AID1645865 (Buhrlage Lab, Dana-Farber Cancer Institute and Novartis …, 2021)
Activity calls are given as the source filed them.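 Rule for the calls: active = maximal inhibition of the USP30 enzyme reaching 30% or more across the dose series; inactive = the rest.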

Biological target: Ubiquitin carboxyl-terminal hydrolase 30 (Homo sapiens) (UniProt Q70CQ3)
Assay: inhibitors of ubiquitin-specific protease 30 deubiquitylating enzyme, concentration dependence, in vitro biochemical, validation of primary hits (AID 1645865)
Details: purified USP30, Ub-rhodamine cleavage, fluorescence, 2 h

Ubiquitin carboxyl-terminal hydrolase 30 (Homo sapiens), sequence (Q70CQ3 whole entry, looked up): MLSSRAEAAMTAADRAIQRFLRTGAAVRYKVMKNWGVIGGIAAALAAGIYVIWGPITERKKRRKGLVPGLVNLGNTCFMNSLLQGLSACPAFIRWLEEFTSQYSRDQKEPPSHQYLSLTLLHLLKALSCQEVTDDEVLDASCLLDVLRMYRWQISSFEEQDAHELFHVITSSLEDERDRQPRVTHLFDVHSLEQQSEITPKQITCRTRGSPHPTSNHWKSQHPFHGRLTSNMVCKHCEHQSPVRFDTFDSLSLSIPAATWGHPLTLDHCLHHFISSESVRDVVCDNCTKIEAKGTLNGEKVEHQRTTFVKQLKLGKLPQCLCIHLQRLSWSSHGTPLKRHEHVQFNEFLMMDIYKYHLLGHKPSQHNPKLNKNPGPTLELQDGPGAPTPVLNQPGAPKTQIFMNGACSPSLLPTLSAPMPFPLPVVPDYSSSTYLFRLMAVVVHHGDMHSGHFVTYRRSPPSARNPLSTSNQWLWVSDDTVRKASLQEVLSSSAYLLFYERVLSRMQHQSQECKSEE

Row | SMILES | IC50
1 | CCCC1Cc2c(sc3nc(SCC)nc(N)c23)CO1 (stereo not drawn) | 13.8 µM
2 | Cc1cc(=O)n(CC(=O)Nc2ccccc2F)c(Nc2ccc(F)cc2)n1 | 14.2 µM
3 | Cc1ccccc1-c1noc(-c2ccccc2OCC(=O)NC(C)C)n1 | > 50 µM (inactive)
4 | O=C(CNC(=O)c1cccc(F)c1)Nc1nc2ccccc2[nH]1 | 21.7 µM
5 | Cc1ccc(C)c(-n2c(C)cc(/C=C3/C(=N)N4C(c5ccc(F)cc5)=CSC4=NC3=O)c2C)c1 | > 50 µM (inactive)
6 | CC(C)(C)C(=O)C1C2C(=O)N(Cc3ccccc3)C(=O)C2C2c3ccccc3C=CN12 (stereo not drawn) | > 50 µM (inactive)
7 | NC(=O)c1nnn(-c2ccc(NC(=O)c3ccc(F)c(F)c3)cc2)n1 | 15 µM
8 | Cc1ccc2c(=O)c(C(=O)Nc3ccccc3)cn(CC(=O)NC3CCCCC3)c2n1 | < 0.05 µM
9 | Cc1nn(-c2cc(N3CCOCC3)ncn2)c(C)c1CCC(=O)Nc1ccc(C(C)C)cc1 | 34.9 µM
10 | CC1CCN(c2cc(-n3cnc(C(=O)N4CCCCC4)c3)ncn2)CC1 | > 50 µM (inactive)
11 | O=C(Nc1ccncc1)c1ncoc1-c1cccc(Cl)c1 | 35.5 µM
12 | O=C(Nc1ccc(Br)cn1)c1nc2ccccc2nc1N1CCCCC1 | > 50 µM (inactive)
13 | CCC(=O)Nc1ccc2c(c1)nc(CSc1nccc(C)n1)n2CC | > 50 µM (inactive)
14 | CCCCNC(=O)c1cc2cccnc2n(Cc2ccccc2)c1=O | > 50 µM (inactive)
15 | O=C(Cc1cccc2ccccc12)Nc1nc2ccc(F)cc2s1 | 45.4 µM
16 | CC1=C(C)C(c2c(-c3ccc(C)cc3)[nH]c3ccccc23)N(C(C)(C)C)C1=O (stereo not drawn) | 1.85 µM
17 | Cc1ccc(NC2=NC(c3ccco3)n3c(nc(C)cc3=O)N2)c(C)c1 (stereo not drawn) | 2.87 µM
18 | Cc1cc(C(=O)CSc2nc3ccccc3[nH]2)c(C)n1Cc1ccco1 | > 50 µM (inactive)
19 | CCC(C)c1ccc(O[C@@H]2O[C@@H]3COC(c4ccccc4)O[C@H]3[C@H](O)[C@H]2NC(C)=O)cc1 (stereo partly drawn) | 18.5 µM
20 | CCCn1c(=O)n(CC(=O)c2ccccc2F)c2c(C(N)=O)nc(-c3ccco3)nc21 | > 50 µM (inactive)
21 | CC(C)(C)c1cc(CCC(=O)Nc2c3c(nc4c2CCC4)CCCC3)cc(C(C)(C)C)c1O | > 50 µM (inactive)
22 | Cc1nc2ccccn2c1C1(O)C(=O)Nc2c(Cl)cc(Cl)cc21 (stereo not drawn) | > 50 µM (inactive)
23 | COc1ccc(C(=O)CCN2CCOCC2)cc1[N+](=O)[O-] | > 50 µM (inactive)
24 | NC(=O)Cn1c(=O)n(Cc2ccc(C(=O)NC3CCCC3)cc2)c(=O)c2ccccc21 | > 50 µM (inactive)

Row | SMILES | IC50
25 | O=C1COc2ccccc2N1Cc1noc(-c2ccccc2)n1 | > 50 µM (inactive)
26 | Nc1c(-c2ccc(Cl)cc2)cnc2cc(-c3ccc(Cl)c(Cl)c3)nn12 | 1.49 µM
27 | COc1cccc(CCNC(=O)CCn2c(=O)c(C)nc3cc(C)c(C)cc32)c1 | > 50 µM (inactive)
28 | Cc1ccc2c(=O)c3c([nH]c2c1C)CCN(CC(=O)NCc1ccccc1)C3 | > 50 µM (inactive)
29 | Cc1cc(C)c(NC(=O)CSc2nc3nccnc3c(=O)n2Cc2ccccc2Cl)c(C)c1 | 3.88 µM
30 | Cn1ncc2c(=O)n(Cc3cccc(Cl)c3)cnc21 | > 50 µM (inactive)
31 | N#Cc1ccccc1Cn1c(=O)n(CCCCC(=O)NCCc2ccccc2)c(=O)c2ccccc21 | 14.4 µM
32 | COc1cc(NC(=O)Cn2c(=O)n(-c3ccc(CC(=O)NC4CCCC4)cc3)c(=O)c3ccccc32)cc(OC)c1 | > 50 µM (inactive)
33 | O=C(Nc1cccc2ccccc12)N1CCC(c2nc3c(nnn3Cc3ccc(F)cc3)c(=O)[nH]2)CC1 | 33.9 µM
34 | CC(=O)c1cc2c(=O)c3c(C(=O)O)c(O)c(O)cc3oc2c(C(C)=O)c1-c1coc2cc(O)c(O)c(C(=O)O)c2c1=O | 4.57 µM
35 | Cc1ccc(Nc2nc(O)c(CC(=O)Nc3ccccc3C)s2)cc1C | 17.3 µM
36 | CCOc1ccc2[nH]c3c(=O)n(CCc4ccc(OC)cc4)cnc3c2c1 | 2.05 µM
37 | Cc1ccc2c(Nc3ccc(CC(=O)O)cc3)c(C(=O)N3CCCC3)cnc2n1 | > 50 µM (inactive)
38 | O=C(c1ccc2ncccc2c1)N1CCC2(C1)Nc1cccnc1NC2=NC1CCCC1 (stereo not drawn) | > 50 µM (inactive)
39 | N#Cc1ccc(Cc2ncc(C(F)(F)F)cc2Cl)s1 | > 50 µM (inactive)
40 | O=C(NCc1ccc2c(c1)OCO2)c1nc(-c2ccccc2)n(-c2ccccc2)n1 | > 50 µM (inactive)
41 | O=[N+]([O-])c1ccccc1C(c1c[nH]c2ccccc12)c1c[nH]c2ccccc12 | > 50 µM (inactive)
42 | Cc1cc(SCc2ncon2)c(C)cc1Cl | > 50 µM (inactive)
43 | COCCCn1c(C(=O)Nc2ccccc2OC)cc2c(=O)n3ccccc3nc21 | > 5 µM (inactive)
44 | CCc1cccc(CC)c1NC(=O)COC(=O)c1cc2cccc(OC)c2oc1=O | 39.5 µM
45 | COc1ccc(-n2ccn3c(CCC(=O)NCc4ccc(F)cc4)nnc3c2=O)cc1 | 25.9 µM
46 | COc1ccc(-c2cc3nc(C)cc(Nc4ccc(F)cc4)n3n2)cc1OC | > 50 µM (inactive)
47 | Cc1c(C(=O)Nc2cccc(C(F)(F)F)c2)cnn1-c1ccccn1 | 36 µM
48 | CCCCCCCc1cc(O)cc(O)c1 | 38.9 µM
